Laboratory results taken from patent US12570642B2, “GLP-IR modulating compounds” (Gilead Sciences, Inc., priority 2021, dated 2026).

biological target: GLP-1R (Homo sapiens, UniProt P43220); experiment: GLP-1R Activation - cAMP Assay; type: cell-based; conditions: cAMP increase in CHO cells stably expressing GLP-1R; each compound run on one of the two cAMP assays (Assay 1 or Assay 2, not specified)
How it was run: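 cAMP rise read by HTRF after 30 min agonist exposure (10-point titration, 37 °C) in HBSS/20 mM Hepes/0.1% BSA, following 1 h pre-incubation. Cells: stable GLP-1R CHO line, 1,000/well, seeded overnight. Sigmoidal fit of response vs log concentration gives EC50.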

Chain of GLP-1R (P43220 24-463): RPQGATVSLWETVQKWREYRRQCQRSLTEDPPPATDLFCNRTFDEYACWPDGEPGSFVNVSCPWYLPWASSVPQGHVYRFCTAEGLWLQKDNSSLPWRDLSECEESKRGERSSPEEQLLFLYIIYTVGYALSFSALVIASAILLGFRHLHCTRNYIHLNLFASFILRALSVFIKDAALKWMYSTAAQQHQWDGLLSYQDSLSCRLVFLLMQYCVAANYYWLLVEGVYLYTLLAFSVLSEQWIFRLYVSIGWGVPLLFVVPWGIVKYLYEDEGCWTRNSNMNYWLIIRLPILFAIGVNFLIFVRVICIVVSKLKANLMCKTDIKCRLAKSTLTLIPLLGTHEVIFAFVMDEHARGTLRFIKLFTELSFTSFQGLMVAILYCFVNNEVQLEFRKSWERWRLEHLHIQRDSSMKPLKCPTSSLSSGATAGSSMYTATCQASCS

| SMILES | EC50 [nM] |
| --- | --- |
| Cc1cc(Cc2nc3c(F)cc(C(=O)O)cc3n2[C@@H]2COCC2(C)C)c(F)cc1-c1cccc(OCc2ccc(C#N)cc2F)n1 [Example 208, (S)-2-(4-(6-((4-cyano-2-fluorobenzyl)oxy)pyridin-2-yl)-2-fluoro-5-methylbenzyl)-1-(4,4-dimethyltetrahydrofuran-3-yl)-4-fluoro-1H-benzo[d]imidazole-6-carboxylic acid] | 0.249 |
| N#Cc1ccc(COc2cccc(-c3ccc(Cc4nc5ccc(C(=O)O)cc5n4[C@@H]4CCOC4)c(F)c3)n2)c(F)c1 [Example 209, (R)-2-(4-(6-((4-cyano-2-fluorobenzyl)oxy)pyridin-2-yl)-2-fluorobenzyl)-1-(tetrahydrofuran-3-yl)-1H-benzo[d]imidazole-6-carboxylic acid] | 12.3 |
| N#Cc1ccc(COc2cccc(-c3ccc(Cc4nc5ccc(C(=O)O)cc5n4[C@H]4CCOC4)c(F)c3)n2)c(F)c1 [Example 210, (S)-2-(4-(6-((4-cyano-2-fluorobenzyl)oxy)pyridin-2-yl)-2-fluorobenzyl)-1-(tetrahydrofuran-3-yl)-1H-benzo[d]imidazole-6-carboxylic acid] | 14.1 |
| Cc1cc(Cc2nc3c(F)cc(C(=O)O)cc3n2[C@@H]2COCC2(C)C)c(F)cc1-c1ccnc(OCc2ccc(Cl)cc2)n1 [Example 211, (S)-2-(4-(2-((4-chlorobenzyl)oxy)pyrimidin-4-yl)-2-fluoro-5-methylbenzyl)-1-(4,4-dimethyltetrahydrofuran-3-yl)-4-fluoro-1H-benzo[d]imidazole-6-carboxylic acid] | 0.258 |
| Cc1cc(Cc2nc3c(F)cc(C(=O)O)cc3n2[C@@H]2COCC2(C)C)c(Cl)cc1-c1ccnc(OCc2ccc(Cl)cc2)n1 [Example 212, (S)-2-(2-chloro-4-(2-((4-chlorobenzyl)oxy)pyrimidin-4-yl)-5-methylbenzyl)-1-(4,4-dimethyltetrahydrofuran-3-yl)-4-fluoro-1H-benzo[d]imidazole-6-carboxylic acid] | 0.379 |
| COCCn1c(Cc2c(F)cc(-c3ccc(F)c(OCc4cnc(-n5ccnn5)cc4Cl)n3)c(F)c2F)nc2c(F)cc(C(=O)O)cc21 [Example 213, 2-(4-(6-((4-chloro-6-(1H-1,2,3-triazol-1-yl)pyridin-3-yl)methoxy)-5-fluoropyridin-2-yl)-2,3,6-trifluorobenzyl)-4-fluoro-1-(2-methoxyethyl)-1H-benzo[d]imidazole-6-carboxylic acid] | 0.042 |
| COCCn1c(Cc2cc(F)c(-c3cccc(OCc4cnc(-n5ccnn5)cc4Cl)n3)cc2F)nc2ccc(C(=O)O)cc21 [Example 214, 2-(4-(6-((4-chloro-6-(1H-1,2,3-triazol-1-yl)pyridin-3-yl)methoxy)pyridin-2-yl)-2,5-difluorobenzyl)-1-(2-methoxyethyl)-1H-benzo[d]imidazole-6-carboxylic acid] | 0.299 |
| COCCn1c(Cc2cc(F)c(-c3ccc(F)c(OCc4cnc(-n5ccnn5)cc4Cl)n3)cc2F)nc2ccc(C(=O)O)cc21 [Example 215, 2-(4-(6-((4-chloro-6-(1H-1,2,3-triazol-1-yl)pyridin-3-yl)methoxy)-5-fluoropyridin-2-yl)-2,5-difluorobenzyl)-1-(2-methoxyethyl)-1H-benzo[d]imidazole-6-carboxylic acid] | 0.21 |
| Cc1cc(Cc2nc3ccc(C(=O)O)cc3n2[C@@H]2COCC2(C)C)c(Cl)cc1-c1ccnc(OCc2ccc(Cl)cc2)n1 [Example 218, (S)-2-(2-chloro-4-(2-((4-chlorobenzyl)oxy)pyrimidin-4-yl)-5-methylbenzyl)-1-(4,4-dimethyltetrahydrofuran-3-yl)-1H-benzo[d]imidazole-6-carboxylic acid] | 0.279 |
| Cc1cc(Cc2nc3ccc(C(=O)O)cc3n2[C@@H]2COCC2(C)C)c(F)cc1-c1ccnc(OCc2ccc(Cl)cc2)n1 [Example 219, (S)-2-(4-(2-((4-chlorobenzyl)oxy)pyrimidin-4-yl)-2-fluoro-5-methylbenzyl)-1-(4,4-dimethyltetrahydrofuran-3-yl)-1H-benzo[d]imidazole-6-carboxylic acid] | 0.189 |
| O=C(O)c1cc(F)c2nc(Cc3cc(F)c(-c4cccc(OCc5ccc(Cl)cc5F)n4)cc3F)n(C3COCC34CC4)c2c1 (stereo not drawn) [Example 220, 2-(4-(6-((4-chloro-2-fluorobenzyl)oxy)pyridin-2-yl)-2,5-difluorobenzyl)-4-fluoro-1-(5-oxaspiro[2.4]heptan-7-yl)-1H-benzo[d]imidazole-6-carboxylic acid] | 0.216 |
| COCCn1c(Cc2cc(F)c(-c3cccc(OCc4ccc(-n5ccnn5)nc4)n3)cc2F)nc2c(F)cc(C(=O)O)cc21 [Example 221, 2-(4-(6-((6-(1H-1,2,3-triazol-1-yl)pyridin-3-yl)methoxy)pyridin-2-yl)-2,5-difluorobenzyl)-4-fluoro-1-(2-methoxyethyl)-1H-benzo[d]imidazole-6-carboxylic acid] | 0.508 |
| COCCn1c(Cc2c(F)cc(-c3cccc(OCc4ccc(-n5ccnn5)cc4)n3)c(F)c2F)nc2c(F)cc(C(=O)O)cc21 [Example 222, 2-(4-(6-((4-(1H-1,2,3-triazol-1-yl)benzyl)oxy)pyridin-2-yl)-2,3,6-trifluorobenzyl)-4-fluoro-1-(2-methoxyethyl)-1H-benzo[d]imidazole-6-carboxylic acid] | 0.136 |
| COCCn1c(Cc2c(F)cc(-c3ccc(F)c(OCc4ccc(-n5ccnn5)cc4)n3)c(F)c2F)nc2c(F)cc(C(=O)O)cc21 [Example 223, 2-(4-(6-((4-(1H-1,2,3-triazol-1-yl)benzyl)oxy)-5-fluoropyridin-2-yl)-2,3,6-trifluorobenzyl)-4-fluoro-1-(2-methoxyethyl)-1H-benzo[d]imidazole-6-carboxylic acid] | 0.126 |
| N#Cc1ccc(COc2nc(-c3cc(F)c(Cc4nc5c(F)cc(C(=O)O)cc5n4C4COCC45CC5)cc3F)ccc2F)c(F)c1 (stereo not drawn) [Example 224, 2-(4-(6-((4-cyano-2-fluorobenzyl)oxy)-5-fluoropyridin-2-yl)-2,5-difluorobenzyl)-4-fluoro-1-(5-oxaspiro[2.4]heptan-7-yl)-1H-benzo[d]imidazole-6-carboxylic acid] | 0.515 |
| COCCn1c(Cc2cc(C)c(-c3ccc(F)c(OCc4ccc(C#N)cc4F)n3)cc2Cl)nc2c(F)cc(C(=O)O)cc21 [Example 225, 2-(2-chloro-4-(6-((4-cyano-2-fluorobenzyl)oxy)-5-fluoropyridin-2-yl)-5-methylbenzyl)-4-fluoro-1-(2-methoxyethyl)-1H-benzo[d]imidazole-6-carboxylic acid] | 7.14 |
| COCCn1c(Cc2c(F)cc(-c3cccc(OCc4cnc(-n5ccnn5)cc4Cl)n3)c(F)c2F)nc2c(F)cc(C(=O)O)cc21 [Example 226, 2-(4-(6-((4-chloro-6-(1H-1,2,3-triazol-1-yl)pyridin-3-yl)methoxy)pyridin-2-yl)-2,3,6-trifluorobenzyl)-4-fluoro-1-(2-methoxyethyl)-1H-benzo[d]imidazole-6-carboxylic acid] | 0.022 |
| COCCn1c(Cc2cc(C)c(-c3cccc(OCc4ccc(C#N)cc4F)n3)cc2Cl)nc2c(F)cc(C(=O)O)cc21 [Example 227, 2-(2-chloro-4-(6-((4-cyano-2-fluorobenzyl)oxy)pyridin-2-yl)-5-methylbenzyl)-4-fluoro-1-(2-methoxyethyl)-1H-benzo[d]imidazole-6-carboxylic acid] | 4.8 |
| CC1(C)COC[C@H]1n1c(Cc2cc(F)c(-c3ccc(F)c(OCc4ccc(Cl)cc4)n3)cc2F)nc2c(F)cc(C(=O)O)cc21 [Example 228, (S)-2-(4-(6-((4-chlorobenzyl)oxy)-5-fluoropyridin-2-yl)-2,5-difluorobenzyl)-1-(4,4-dimethyltetrahydrofuran-3-yl)-4-fluoro-1H-benzo[d]imidazole-6-carboxylic acid] | 0.047 |
| CC1(C)COC[C@H]1n1c(Cc2c(F)cc(-c3ccnc(OCc4ccc(Cl)cc4)n3)c(F)c2F)nc2c(F)cc(C(=O)O)cc21 [Example 229, (S)-2-(4-(2-((4-chlorobenzyl)oxy)pyrimidin-4-yl)-2,3,6-trifluorobenzyl)-1-(4,4-dimethyltetrahydrofuran-3-yl)-4-fluoro-1H-benzo[d]imidazole-6-carboxylic acid] | 0.135 |
| CC1(C)COC[C@H]1n1c(Cc2cc(F)c(-c3ccnc(OCc4ccc(Cl)cc4)n3)cc2F)nc2c(F)cc(C(=O)O)cc21 [Example 230, (S)-2-(4-(2-((4-chlorobenzyl)oxy)pyrimidin-4-yl)-2,5-difluorobenzyl)-1-(4,4-dimethyltetrahydrofuran-3-yl)-4-fluoro-1H-benzo[d]imidazole-6-carboxylic acid] | 0.034 |
| CC1(C)COC[C@H]1n1c(Cc2cc(F)c(-c3ccnc(OCc4ccc(Cl)cc4)n3)cc2F)nc2ccc(C(=O)O)cc21 [Example 231, (S)-2-(4-(2-((4-chlorobenzyl)oxy)pyrimidin-4-yl)-2,5-difluorobenzyl)-1-(4,4-dimethyltetrahydrofuran-3-yl)-1H-benzo[d]imidazole-6-carboxylic acid] | 0.049 |
| COCCn1c(Cc2c(F)cc(-c3ccc(F)c(OCc4ccc(C#N)cc4F)n3)c(F)c2F)nc2c(F)cc(C(=O)O)cc21 [Example 232, 2-(4-(6-((4-cyano-2-fluorobenzyl)oxy)-5-fluoropyridin-2-yl)-2,3,6-trifluorobenzyl)-4-fluoro-1-(2-methoxyethyl)-1H-benzo[d]imidazole-6-carboxylic acid] | 0.118 |
| CC1(C)COC[C@H]1n1c(Cc2ccc(-c3ccc(F)c(OCc4ccc(-n5ccnn5)cc4F)n3)cc2F)nc2c(F)cc(C(=O)O)cc21 [Example 235, (S)-1-(4,4-dimethyltetrahydrofuran-3-yl)-4-fluoro-2-(2-fluoro-4-(5-fluoro-6-((2-fluoro-4-(1H-1,2,3-triazol-1-yl)benzyl)oxy)pyridin-2-yl)benzyl)-1H-benzo[d]imidazole-6-carboxylic acid] | 0.191 |
